# Data reported in ChEMBL document CHEMBL1201862, “PubChem BioAssay data set” (2004).
#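 Growth conditions: 96-well plates. Treatment: test compound, 48 hours, 5 concentrations. Analysis: linear interpolation between bracketing concentrations; unreached endpoints set to highest concentration. GI50 = concentration required for 50% inhibition of growth.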 Active and inactive are the calls of the source. Cut-off read from the data, not from the text of the source: active = GI50 up to about 1.1 µM and inactive = higher.
# Key:
# Experiment in all cases: NCI tumour cell line growth inhibition, 48 h
# CCRF-CEM = system: CCRF-CEM
# COLO 205 = system: COLO 205
# DU-145 = system: DU-145
# HCT-15 = system: HCT-15
# Hs-578T = system: Hs-578T
# K562 = system: K562
# LOX IMVI = system: LOX IMVI
# MDA-N = system: MDA-N
# NCI-H460 = system: NCI-H460
# OVCAR-3 = system: OVCAR-3
# OVCAR-8 = system: OVCAR-8
# SF-295 = system: SF-295
# SF-539 = system: SF-539
# SK-OV-3 = system: SK-OV-3
# U-251 = system: U-251
# UACC-257 = system: UACC-257
# UACC-62 = system: UACC-62
# EKVX = system: EKVX
# OVCAR-4 = system: OVCAR-4
# SR = system: SR
Compound,GI50 (CCRF-CEM),GI50 (COLO 205),GI50 (DU-145),GI50 (HCT-15),GI50 (Hs-578T),GI50 (K562),GI50 (LOX IMVI),GI50 (MDA-N),GI50 (NCI-H460),GI50 (OVCAR-3),GI50 (OVCAR-8),GI50 (SF-295),GI50 (SF-539),GI50 (SK-OV-3),GI50 (U-251),GI50 (UACC-257),GI50 (UACC-62),GI50 (EKVX),GI50 (OVCAR-4),GI50 (SR)
CC(C)C(/C=C/c1ccc(Cl)cc1)=N\NC(=S)NN,2.68 µM (inactive),24.2 µM (inactive),27.5 µM (inactive),5.98 µM,14.6 µM (inactive),3.55 µM (inactive),7.76 µM (inactive),26.2 µM (inactive),5.26 µM (inactive),20.1 µM (inactive),12 µM (inactive),22.1 µM (inactive),25.1 µM (inactive),33.7 µM (inactive),6.61 µM (inactive),22.5 µM (inactive),4.51 µM (inactive),–,–,–
O=C(O)CCSCc1ccc(I)cc1,> 100 µM (inactive),> 100 µM (inactive),> 100 µM (inactive),> 100 µM,> 100 µM (inactive),> 100 µM (inactive),> 100 µM (inactive),> 100 µM (inactive),> 100 µM (inactive),> 100 µM (inactive),> 100 µM (inactive),> 100 µM (inactive),–,> 100 µM (inactive),> 100 µM (inactive),> 100 µM (inactive),> 100 µM (inactive),> 100 µM (inactive),> 100 µM (inactive),–
CCCn1cnc2c(/N=N/O)ncnc21,–,> 100 µM (inactive),> 100 µM (inactive),> 100 µM,> 100 µM (inactive),> 100 µM (inactive),–,> 100 µM (inactive),> 100 µM (inactive),> 100 µM (inactive),> 100 µM (inactive),–,> 100 µM (inactive),–,> 100 µM (inactive),–,> 100 µM (inactive),> 100 µM (inactive),> 100 µM (inactive),> 100 µM (inactive)
O=c1cc(NNc2ccc3ccccc3c2)[nH]c(=S)[nH]1,–,23.2 µM (inactive),> 100 µM (inactive),14.5 µM,25 µM (inactive),18.6 µM (inactive),13 µM (inactive),45.6 µM (inactive),40.9 µM (inactive),19.3 µM (inactive),44.9 µM (inactive),61.9 µM (inactive),30.3 µM (inactive),–,27 µM (inactive),> 100 µM (inactive),–,> 100 µM (inactive),68.7 µM (inactive),29.7 µM (inactive)
COc1cc(CNc2nc3cc(C(F)(F)F)ccc3nc2-c2ccccc2)cc(OC)c1OC,24.9 µM (inactive),17.1 µM (inactive),89.7 µM (inactive),17.3 µM,37.4 µM (inactive),22.5 µM (inactive),28.6 µM (inactive),30.6 µM (inactive),25.4 µM (inactive),24.6 µM (inactive),33.2 µM (inactive),41.8 µM (inactive),43.1 µM (inactive),–,27 µM (inactive),33.6 µM (inactive),8.53 µM (inactive),10.9 µM (inactive),–,15.9 µM (inactive)
COc1ccc(/N=N/C(=O)NC(CC(C)C)C(=O)NC(C)C(=O)O)cc1 (centres undefined),6.28 µM (inactive),3.2 µM (inactive),6.25 µM (inactive),1.3 µM,> 79.3 µM (inactive),1.54 µM (inactive),4.68 µM (inactive),10.8 µM (inactive),9.66 µM (inactive),28.8 µM (inactive),> 43.1 µM (inactive),9.82 µM (inactive),2.04 µM (inactive),–,> 100 µM (inactive),23 µM (inactive),0.968 µM (active),30 µM (inactive),> 69.5 µM (inactive),12.7 µM (inactive)
COC(=O)C1=C(C(=O)OC)C(C(=O)c2ccccc2)N2N=C(c3ccc(Cl)cc3)C=CC12 (centres undefined),13.6 µM (inactive),> 100 µM (inactive),> 100 µM (inactive),9.62 µM,–,30.3 µM (inactive),18.7 µM (inactive),15.3 µM (inactive),37.1 µM (inactive),> 100 µM (inactive),12.4 µM (inactive),44.7 µM (inactive),> 100 µM (inactive),> 100 µM (inactive),> 100 µM (inactive),> 100 µM (inactive),23.9 µM (inactive),8.81 µM (inactive),19.2 µM (inactive),> 100 µM (inactive)
Cc1cc2c(nn1)CCc1c-2no[n+]1[O-],> 100 µM (inactive),> 100 µM (inactive),–,> 100 µM,> 100 µM (inactive),> 100 µM (inactive),> 100 µM (inactive),> 100 µM (inactive),> 100 µM (inactive),> 100 µM (inactive),> 100 µM (inactive),> 100 µM (inactive),> 100 µM (inactive),> 100 µM (inactive),> 100 µM (inactive),> 100 µM (inactive),> 100 µM (inactive),> 100 µM (inactive),> 100 µM (inactive),> 100 µM (inactive)
CN(C)c1ccc2nc(CC(O)(C(F)(F)F)C(F)(F)F)ccc2c1,> 10 µM (inactive),> 10 µM (inactive),> 10 µM (inactive),> 10 µM,> 10 µM (inactive),> 10 µM (inactive),> 10 µM (inactive),> 10 µM (inactive),> 10 µM (inactive),> 10 µM (inactive),> 10 µM (inactive),> 10 µM (inactive),> 10 µM (inactive),> 10 µM (inactive),> 10 µM (inactive),> 10 µM (inactive),> 10 µM (inactive),> 10 µM (inactive),> 10 µM (inactive),–
O=C(/C=C/c1cc(F)ccc1F)OCCc1ccccc1,38.3 µM (inactive),> 100 µM (inactive),–,35.6 µM,1.67 µM (inactive),52.1 µM (inactive),–,91.4 µM (inactive),–,–,> 100 µM (inactive),–,88.5 µM (inactive),–,33 µM (inactive),> 100 µM (inactive),86.5 µM (inactive),> 100 µM (inactive),0.933 µM (active),40.2 µM (inactive)
Cc1ccccc1NC(=O)Cc1csc(N/N=C2\C(=O)Nc3ccccc32)n1,46 µM (inactive),> 100 µM (inactive),75 µM (inactive),37.2 µM,25.8 µM (inactive),64.7 µM (inactive),64.1 µM (inactive),75.2 µM (inactive),35.4 µM (inactive),–,16.6 µM (inactive),16.7 µM (inactive),17.9 µM (inactive),–,1 µM (active),91 µM (inactive),49.9 µM (inactive),31.8 µM (inactive),21.8 µM (inactive),–
O=C(CCCNc1nc(-c2ccccc2)cs1)c1cccs1,–,> 100 µM (inactive),–,> 100 µM,> 100 µM (inactive),> 100 µM (inactive),> 100 µM (inactive),> 100 µM (inactive),> 100 µM (inactive),> 100 µM (inactive),> 100 µM (inactive),> 100 µM (inactive),> 100 µM (inactive),> 100 µM (inactive),> 100 µM (inactive),> 100 µM (inactive),> 100 µM (inactive),> 100 µM (inactive),> 100 µM (inactive),> 100 µM (inactive)
O=C(Cc1ccccc1)N/N=C1\C(=O)Nc2ccccc21,> 100 µM (inactive),> 100 µM (inactive),> 100 µM (inactive),62.8 µM,65.3 µM (inactive),> 100 µM (inactive),–,> 100 µM (inactive),> 100 µM (inactive),> 100 µM (inactive),> 100 µM (inactive),25.8 µM (inactive),23.1 µM (inactive),> 100 µM (inactive),61.1 µM (inactive),> 100 µM (inactive),> 100 µM (inactive),72.1 µM (inactive),> 100 µM (inactive),> 100 µM (inactive)
CC(=O)Oc1ccc2cc(-c3ccc(OC(C)=O)c(OC(C)=O)c3)c(=O)oc2c1,42.1 µM (inactive),> 100 µM (inactive),41.6 µM (inactive),> 100 µM,54.2 µM (inactive),49.8 µM (inactive),> 100 µM (inactive),> 100 µM (inactive),85.9 µM (inactive),18.4 µM (inactive),> 100 µM (inactive),52.8 µM (inactive),> 100 µM (inactive),–,67.1 µM (inactive),97.9 µM (inactive),–,30.4 µM (inactive),27.1 µM (inactive),87.7 µM (inactive)
COc1cccc2c1CCc1c(-c3ccc(F)cc3)cc(-c3ccc4ccccc4n3)nc1-2,> 100 µM (inactive),> 100 µM (inactive),–,> 100 µM,> 100 µM (inactive),> 100 µM (inactive),> 100 µM (inactive),> 100 µM (inactive),> 100 µM (inactive),> 100 µM (inactive),> 100 µM (inactive),> 100 µM (inactive),> 100 µM (inactive),> 100 µM (inactive),> 100 µM (inactive),> 100 µM (inactive),> 100 µM (inactive),> 100 µM (inactive),> 100 µM (inactive),> 100 µM (inactive)
CCCCN(c1ccccc1)c1ncnc2c1cnn2C,21.3 µM (inactive),> 100 µM (inactive),53.6 µM (inactive),35.4 µM,22.4 µM (inactive),28.2 µM (inactive),46.3 µM (inactive),42 µM (inactive),31.6 µM (inactive),24.8 µM (inactive),41.2 µM (inactive),32.5 µM (inactive),–,50.1 µM (inactive),44.2 µM (inactive),28.7 µM (inactive),31.2 µM (inactive),31.8 µM (inactive),27.1 µM (inactive),–
